Measurements reported in patent US20240132492A1, “PYRIDOPYRIMIDINE-BASED COMPOUND AND APPLICATION THEREOF” (JINAN UNIVERSITY, priority 2021, published 2024).

How the values were obtained:
Type in all cases: cell-based
HCC1937 = assay: CCK-8 tumor cell proliferation, HCC1937; details: Homo sapiens, HCC1937 cells, 72 hours
Protocol: (§1) Tumor cells (see Table 2 to Table 5) were inoculated in 96-well plates in complete culture medium (2000-3000 cells/well). After overnight incubation, the compounds with different concentrations (0.000508 μM-10 μM) were used to treat the cells separately for 72 hours. CCK-8 (Cell Counting Kit 8, Dojindo Laboratories, Kumamoto, Japan) experiment was used to evaluate cell proliferation. GraphPad Prism 5.0 software (La Jolla, CA) was used to calculate the half-maximal inhibitory concentration (IC50) values by fitting the concentration response curve. Each IC50 value was represented as an average value±SD.

Huh7 = assay: CCK-8 tumor cell proliferation, Huh7; details: Homo sapiens, Huh-7, Huh7 cells, 72 hours
Protocol: as §1

BT-549 = assay: CCK-8 tumor cell proliferation, BT-549; details: Homo sapiens, BT-549 cells, 72 hours
Protocol: as §1

MDA-MB-453 = assay: CCK-8 tumor cell proliferation, MDA-MB-453; details: Homo sapiens, MDA-MB-453 cells, 72 hours
Protocol: as §1

Bel-7402 = assay: CCK-8 tumor cell proliferation, Bel-7402; details: Homo sapiens, Bel-7402 cells, 72 hours
Protocol: as §1

PANC-1 = assay: CCK-8 tumor cell proliferation, PANC-1; details: Homo sapiens, PANC-1 cells, 72 hours
Protocol: as §1

HCT116 = assay: CCK-8 tumor cell proliferation, HCT116; details: Homo sapiens, HCT-116, HCT116 cells, 72 hours
Protocol: as §1

A549 = assay: CCK-8 tumor cell proliferation, A549; details: Homo sapiens, A549 cells, 72 hours
Protocol: as §1

K562 = assay: CCK-8 tumor cell proliferation, K562; details: Homo sapiens, K562 cells, 72 hours
Protocol: as §1

MDA-MB-231 = assay: CCK-8 tumor cell proliferation, MDA-MB-231; details: Homo sapiens, MDA-MB-231 cells, 72 hours
Protocol: as §1

BXPC-3 = assay: CCK-8 tumor cell proliferation, BXPC-3; details: Homo sapiens, BXPC-3 cells, 72 hours
Protocol: as §1

MIAPACA-2 = assay: CCK-8 tumor cell proliferation, MIAPACA-2; details: Homo sapiens, MIA PaCa-2, MIAPACA-2 cells, 72 hours
Protocol: as §1

H1975 = assay: CCK-8 tumor cell proliferation, H1975; details: Homo sapiens, NCI-H1975, H1975 cells, 72 hours
Summary of the method: (§2)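 Cells seeded at 2000-3000/well, incubated overnight, then treated with compound (0.000508 μM-10 μM) for 72 h. Proliferation measured by CCK-8. IC50 fitted from concentration-response curves and reported as mean ± SD.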

AKT1/2 = assay: Immunoblotting, AKT1/2 protein levels in other tumor cells (H1975, PC-9, H1299, A549); details: H1975, PC-9, H1299 and A549 cells, different concentrations, 24 hours
Protocol: (§3) Conventional Western Blot (immunoblotting) was used for detection, as follows: a certain number of H1975-OR cells were planted on a 96 well plate, adherent cultured in an incubator overnight, and added a certain concentration of compound to act for 24 hours. 1×SDS lysis buffer with protease and phosphatase inhibitors was used to lyse cells. Cell lysates were separated by SDS-PAGE and transferred to PVDF membrane. Then, at room temperature, the PCDF membrane was taken out and immersed in a sealing solution (5% BSA TBS solution containing 0.5% Tween-20) for sealing treatment for 1 hour, and then incubated with a specific primary antibody at 4° C. overnight. The imprints were washed with TBST and incubated with horseradish peroxidase (HRP) labeled secondary antibodies at room temperature for 2 hours. Finally, ECL plus fluorescence detection reagent (Thermo Scientific, Waltham, MA) was used for protein development, and the Amersham Imager 600 system (GE, America) was used for photography. The detection results were processed using ImageJ software to obtain the grayscale value G (Density).
(§4) Tumor cells ([…], and A549) was incubated with different concentrations of compound ZX-HYT-11 for 24 hours, and then analyzed the protein levels of AKT1/2/3 using immunoblotting method as described in Embodiment 105.

A431 = assay: CCK-8 tumor cell proliferation, A431; details: Homo sapiens, A-431, A431 cells, 72 hours
Summary of the method: as §2

AKT3 [1] = molecular target: T1, AKT3 (Homo sapiens, UniProt Q9Y243); assay: Western Blot, degradation of AKT3 protein in H1975-OR cells; set-up: endogenous in cells; host or cells: H1975-OR (osimertinib-resistant H1975); details: 1000 nM, 24 hours, maximum degradation rate
T1 sequence (Q9Y243 whole entry): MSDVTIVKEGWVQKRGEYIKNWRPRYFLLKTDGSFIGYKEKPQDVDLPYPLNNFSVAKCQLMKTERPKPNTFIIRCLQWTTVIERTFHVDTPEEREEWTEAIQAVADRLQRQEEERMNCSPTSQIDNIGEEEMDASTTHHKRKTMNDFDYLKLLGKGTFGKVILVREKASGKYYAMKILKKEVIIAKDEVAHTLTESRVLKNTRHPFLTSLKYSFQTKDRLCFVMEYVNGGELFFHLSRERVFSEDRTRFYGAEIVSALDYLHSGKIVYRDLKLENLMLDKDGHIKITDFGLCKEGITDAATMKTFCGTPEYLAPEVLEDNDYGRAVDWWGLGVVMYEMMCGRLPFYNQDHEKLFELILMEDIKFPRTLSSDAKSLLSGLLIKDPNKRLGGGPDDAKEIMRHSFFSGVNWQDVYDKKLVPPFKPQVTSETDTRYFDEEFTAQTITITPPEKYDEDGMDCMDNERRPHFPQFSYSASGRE
Summary of the method: (§5)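 H1975-OR cells are Osimertinib-resistant H1975, adapted stepwise from 50 nM to 3 μM Osimertinib. Cells were treated with compound for 24 h, lysed, and immunoblotted with ECL detection. Band grayscale density was quantified.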

AKT3 [2] = molecular target: T1, AKT3; assay: Immunoblotting, AKT3 protein level in other tumor cells (H1975, PC-9, H1299, A549); set-up: analyzed the protein levels of AKT1/2/3 using immunoblotting method as described in Embodiment 105; endogenous in cells; host or cells: H1975, PC-9, H1299, A549; details: H1975, PC-9, H1299 and A549 cells, different concentrations, 24 hours
Protocol: as §3, §4

H1975OR = assay: CCK-8 tumor cell proliferation, H1975OR; details: H1975OR cells (Osimertinib resistant), 72 hours
Summary of the method: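 Osimertinib-resistant H1975 cells, selected by raising Osimertinib stepwise from 50 nM to 3 μM, were treated for 72 h with compound at 0.000508–10 μM. Proliferation was read by CCK-8, and IC50 came from fitting the concentration–response curve, given as mean ± SD.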

H1299 = assay: CCK-8 tumor cell proliferation, H1299; details: Homo sapiens, NCI-H1299, H1299 cells, 72 hours
Summary of the method: as §2

AKT2 = molecular target: T2, AKT2 (Homo sapiens, UniProt P31751); assay: Western Blot, degradation of AKT2 protein in H1975-OR cells; details: 1000 nM, 24 hours, maximum degradation rate
T2 construct: AKT1, AKT2, and AKT3 proteins in H1975-OR cells; endogenous in cells; host or cells: H1975-OR (osimertinib-resistant H1975)
T2 sequence (P31751 whole entry): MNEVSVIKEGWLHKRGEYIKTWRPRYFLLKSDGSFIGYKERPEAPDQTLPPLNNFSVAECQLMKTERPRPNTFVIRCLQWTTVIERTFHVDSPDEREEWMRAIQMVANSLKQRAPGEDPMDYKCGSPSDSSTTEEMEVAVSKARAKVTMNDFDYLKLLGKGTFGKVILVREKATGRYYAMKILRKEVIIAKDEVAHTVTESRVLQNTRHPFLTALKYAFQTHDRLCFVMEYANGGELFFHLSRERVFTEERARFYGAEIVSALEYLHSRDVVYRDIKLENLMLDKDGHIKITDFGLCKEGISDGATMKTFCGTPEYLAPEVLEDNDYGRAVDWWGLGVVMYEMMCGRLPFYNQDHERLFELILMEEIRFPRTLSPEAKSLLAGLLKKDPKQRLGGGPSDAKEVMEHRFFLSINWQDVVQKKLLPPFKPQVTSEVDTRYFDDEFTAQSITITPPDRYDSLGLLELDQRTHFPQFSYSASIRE
Summary of the method: as §5

PC-9 = assay: CCK-8 tumor cell proliferation, PC-9; details: Homo sapiens, PC-9 cells, 72 hours
Summary of the method: as §2

HCC827 = assay: CCK-8 tumor cell proliferation, HCC827; details: Homo sapiens, HCC827 cells, 72 hours
Summary of the method: as §2

AKT1 = molecular target: T3, AKT1 (Homo sapiens, UniProt P31749); assay: Western Blot, degradation of AKT1 protein in H1975-OR cells; details: 1000 nM, 24 hours, maximum degradation rate
T3 construct: AKT1, AKT2, and AKT3 proteins in H1975-OR cells; endogenous in cells; host or cells: H1975-OR (osimertinib-resistant H1975)
T3 sequence (P31749 whole entry): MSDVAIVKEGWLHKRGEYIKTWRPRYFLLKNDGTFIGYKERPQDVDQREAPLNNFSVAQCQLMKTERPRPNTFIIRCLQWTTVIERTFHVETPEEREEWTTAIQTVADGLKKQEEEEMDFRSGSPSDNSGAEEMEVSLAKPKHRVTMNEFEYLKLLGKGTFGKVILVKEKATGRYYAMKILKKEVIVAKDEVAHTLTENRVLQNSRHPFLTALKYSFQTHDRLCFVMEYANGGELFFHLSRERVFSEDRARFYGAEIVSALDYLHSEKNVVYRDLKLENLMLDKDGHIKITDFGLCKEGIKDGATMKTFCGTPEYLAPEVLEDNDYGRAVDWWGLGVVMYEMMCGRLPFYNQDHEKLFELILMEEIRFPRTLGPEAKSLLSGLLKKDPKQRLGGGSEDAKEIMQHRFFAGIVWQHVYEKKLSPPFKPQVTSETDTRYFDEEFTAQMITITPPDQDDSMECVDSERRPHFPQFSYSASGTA
Summary of the method: as §5

Row | SMILES | IC50 (HCC1937) [µM] | IC50 (Huh7) [µM] | IC50 (BT-549) [µM] | IC50 (MDA-MB-453) [µM] | IC50 (Bel-7402) [µM] | IC50 (PANC-1) [µM] | IC50 (HCT116) [µM] | IC50 (A549) [µM] | IC50 (K562) [µM] | IC50 (MDA-MB-231) [µM] | IC50 (BXPC-3) [µM] | IC50 (MIAPACA-2) [µM] | further results
1 | COc1cc(N2CCN(C(=O)CC34CC5CC(CC(C5)C3)C4)CC2)ccc1Nc1ncc2c(C)cc(=O)n(-c3cccc(NC(=O)C4CC4)c3)c2n1 [ZX-HYT-50, N-(3-(2-((4-(4-(2-((3R, 5R, 7R)-adamantan-1-yl)acetyl)piperazin-1-yl)-2-methoxyphenyl)amino)-5-methyl-7-oxypyridino [2,3-d]pyrimidin-8 (7H)-yl)phenyl) cyclopropane formamide] | > 10 | 0.632 | > 10 | > 10 | > 10 | 0.0137 | 0.0119 | 0.668 | 0.0293 | 0.155 | 0.0421 | 0.00864 | –
2 | COc1cc(N2CCN(CCNC(=O)CC34CC5CC(CC(C5)C3)C4)CC2)ccc1Nc1ncc2c(C)cc(=O)n(-c3cccc(NC(=O)C4CC4)c3)c2n1 [ZX-HYT-51, N-(3-(2-((4-(4-(2-(2-((3R, 5R, 7R)-adamantan-1-yl)acetylamino)ethyl)piperazin-1-yl)-2-methoxyphenyl))amino)-5-methyl-7-oxypyridino [2,3-d]pyrimidin-8 (7H)-yl) phenyl) cyclopropane formamide] | > 10 | > 10 | 0.644 | > 10 | > 3 | 0.125 | 0.0553 | 0.629 | 0.263 | 0.145 | 0.333 | 0.0513 | –
3 | COc1cc(N2CCN(C(=O)C34CC5CC(CC(C5)C3)C4)CC2)ccc1Nc1ncc2c(C)cc(=O)n(-c3cccc(NC(=O)C4CC4)c3)c2n1 [ZX-HYT-65, N-(3-(2-((4-(4-((3R, 5R, 7R)-adamantan-1-carbonyl)piperazin-1-yl)-2-methoxyphenyl)amino)-5-methyl-7-oxypyridino [2,3-d]pyrimidin-8 (7H)-yl)phenyl) cyclopropane formamide] | > 10 | 0.335 | > 10 | > 10 | > 10 | 0.179 | 0.0729 | 1.17 | 0.234 | 0.104 | 0.447 | 0.0511 | –
4 | COc1cc(N2CCN(CCCCCCCCCCCCNC(=O)CC34CC5CC(CC(C5)C3)C4)CC2)ccc1Nc1ncc2c(C)cc(=O)n(-c3cccc(NC(=O)C4CC4)c3)c2n1 [ZX-HYT-11, N-(3-(2-((4-(4-(12-(2-(((3R, 5R, 7R)-adamantan-1-yl)acetylamino)dodecyl)piperazin-1-yl)-2-methoxyphenyl)amino)-5-methyl-7-oxypyridino [2,3-d]pyrimidin-8 (7H)-yl)phenyl)cyclopropane formamide] | > 10 | 0.686 | > 10 | > 10 | > 10 | – | – | – | – | 0.0294 | – | – | IC50 (H1975): 2.39 ± 2 µM; effect on AKT1/2 protein levels (AKT1/2): without affecting AKT1/2; IC50 (A431): 0.0093 ± 0.0004 µM; Dmax at 1 µM (AKT3 [1]): 91.1%; degradation of AKT3 protein (AKT3 [2]): could selectively degrade AKT3 protein; IC50 (H1975OR): 0.007 ± 0.0006 µM; IC50 (H1299): 0.27 ± 0.0723 µM; Dmax at 1 µM (AKT2): 15.3%; IC50 (PC-9): 0.0839 ± 0.0135 µM; IC50 (HCC827): 0.0932 ± 0.014 µM; Dmax at 1 µM (AKT1): 0%
5 | COc1cc(N2CCN(CCCCNC(=O)CC34CC5CC(CC(C5)C3)C4)CC2)ccc1Nc1ncc2c(C)cc(=O)n(-c3cccc(NC(=O)C4CC4)c3)c2n1 [ZX-HYT-52, N-(3-(2-((4-(4-(4-(2-((3R, 5R, 7R)-adamantan-1-yl)acetylamino)butyl)piperazin-1-yl)-2-methoxyphenyl))amino)-5-methyl-7-oxypyridino [2,3-d]pyrimidin-8 (7H)-yl) phenyl) cyclopropane formamide] | 0.002 to 0.005 | 1.35 | 0.478 | 2.5 | 0.568 | 0.126 | 0.104 | 0.833 | 0.25 | 1.99 | 0.303 | 0.0721 | –
